System: children with physician-diagnosed asthma
Assay: Randomized placebo-controlled study of daily montelukast on LTE4-related albuterol usage in schoolchildren with asthma
Assay type: in vivo, human
Conditions: for Change in Albuterol Usage Per IQR Increase in LTE4, Relative difference (treatment vs baseline interval) / Change in Albuterol Usage Per IQR Increase in LTE4, Treatment Interval: montelukast group
Text: Twenty-eight children, aged 6 to 15, who had physician-diagnosed asthma were followed over a 5-month period (Nov. 15, 2005 to Apr. 15, 2006). Children were excluded from the study if they were already receiving montelukast. Many of the children are classified as urban poor. The children attended the same school.
After an initial two and a half month period (baseline interval), children were randomized to receive daily montelukast (montelukast group) or placebo (placebo group) for the final two and a half months of the study (treatment interval). Study medication and placebo were administered in a single-blinded fashion by school nurses or study personnel on school days and by parents (who were blinded) on non-school-days. Children were otherwise followed by their regular physicians who were free to adjust medications as needed (these medication changes were recorded and controlled for in the statistical analysis).
Each child was given a Doser (Meditrak, Hudson, M S) for use at school throughout the 5-month period. The Doser is an electronic counter that records the total number of (albuterol) activations in each 24-hour period. At study initiation, parents completed a questionnaire describing baseline demographic and asthma severity characteristics. School nurses recorded all other medication changes during the study.
Sixteen urine samples were collected from each child on 8 consecutive schooldays during the baseline interval and 8 consecutive schooldays during the treatment interval. Urine was collected at approximately the same time each day (10:00 AM to 12:00 PM). Collection was staggered in groups of 10 children so that urine monitoring occurred daily throughout the 5 months of the study.
Baseline model: A Poisson regression model employing generalized estimating equations (GEE) (Dobson A J. An introduction to generalized linear models, 2nd edition, Chapman & Hall/CRC 2001) was used to determine the strength of association between albuterol medication use (modeled as the outcome) and LTE4 levels, at various lag times (in days) between the variables. An indicator for Friday (=1 if response was on Friday, =0 otherwise) was included because children had regular exercise activities from Monday through Thursday, but not on Friday. […] The same day and up to a 4-day lag of LTE4 was tested for, in separate models.
Experiment model: Daily albuterol use was modeled as a function of LTE4, group (montelukast and placebo), interval (baseline and treatment), and all interactions of these variables, using Poisson regression and employing GEE. Using the baseline model as a guide, 3-day moving averages of LTE4 (days 0-2 and 1-3 prior to current day) were used. Other covariates in the model included daily indicators for Friday, prednisone use, special exercise days during the treatment interval, and interval-level indictors of ICS and LABA use.
Effect modifier models: These models were fit for the subjects randomized to montelukast only. The model had LTE4, interval, the effect modifier of interest, and all interactions of these variables. Otherwise, the model was similar to the ‘Experiment model’ described above. The effect modifiers tested included gender, ICS and LABA use, mean LTE4, mean FENO, height, mean cotinine, and mean LTE4 to FENO ratio.
The interquartile range (IQR) for LTE4 was used to standardize slope estimates; this statistic was determined by first calculating the IQR for each subject, and then taking the median across subjects. For all models described above, a first order autoregressive working covariance structure was used to model repeated measures within subjects over time. SAS software, version 9.1 (PROC GENMOD) was used to fit the data to the models described above. […]

[1] = Group 1 meds: No Meds or ICS, 1-3 day moving average
[2] = Group 2 meds: ICS and LABA, 1-3 day moving average
[3] = LTE4:FENO Ratio 1st quartile estimate
[4] = LTE4:FENO Ratio 3rd quartile estimate
[5] = mean FENO 1st quartile estimate
[6] = mean FENO 3rd quartile estimate
[7] = mean LTE4 1st quartile estimate
[8] = mean LTE4 3rd quartile estimate
[9] = mean urine Cotinine 1st quartile estimate
[10] = mean urine Cotinine 3rd quartile estimate

Compound: CC(C)(O)c1ccccc1CC[C@@H](SCC1(CC(=O)O)CC1)c1cccc(/C=C/c2ccc3ccc(Cl)cc3n2)c1 [Montelukast, montelukast]
- Change in Albuterol Usage per IQR of LTE4, Relative Diff. (Female (Group 2 gender)): −26.7%
- Change in Albuterol Usage per IQR of LTE4, Treatment interval (Female (Group 2 gender)): −11.5%
- Change in Albuterol Usage per IQR of LTE4, Relative Diff. [1]: −22.0%
- Change in Albuterol Usage per IQR of LTE4, Treatment interval [1]: −10.5%
- Change in Albuterol Usage per IQR of LTE4, Relative Diff. [2]: −6.6%
- Change in Albuterol Usage per IQR of LTE4, Treatment interval [2]: −1.0%
- Change in Albuterol Usage per IQR of LTE4, Relative Diff. (Height 1st quartile estimate): −16.4%
- Change in Albuterol Usage per IQR of LTE4, Treatment interval (Height 1st quartile estimate): −2.4%
- Change in Albuterol Usage per IQR of LTE4, Relative Diff. (Height 3rd quartile estimate): −16.4%
- Change in Albuterol Usage per IQR of LTE4, Treatment interval (Height 3rd quartile estimate): −0.3%
- Change in Albuterol Usage per IQR of LTE4, Relative Diff. [3]: 1.8%
- Change in Albuterol Usage per IQR of LTE4, Treatment interval [3]: −0.8%
- Change in Albuterol Usage per IQR of LTE4, Relative Diff. [4]: −17.6%
- Change in Albuterol Usage per IQR of LTE4, Treatment interval [4]: −1.3%
- Change in Albuterol Usage per IQR of LTE4, Relative Diff. (Male (Group 1 gender)): −7.9%
- Change in Albuterol Usage per IQR of LTE4, Treatment interval (Male (Group 1 gender)): −0.5%
- Change in Albuterol Usage per IQR of LTE4, Relative Diff. [5]: −10.4%
- Change in Albuterol Usage per IQR of LTE4, Treatment interval [5]: −0.1%
- Change in Albuterol Usage per IQR of LTE4, Relative Diff. [6]: −0.6%
- Change in Albuterol Usage per IQR of LTE4, Treatment interval [6]: −6.4%
- Change in Albuterol Usage per IQR of LTE4, Relative Diff. [7]: −13.4%
- Change in Albuterol Usage per IQR of LTE4, Treatment interval [7]: −1.5%
- Change in Albuterol Usage per IQR of LTE4, Relative Diff. [8]: −10.9%
- Change in Albuterol Usage per IQR of LTE4, Treatment interval [8]: −4.8%
- Change in Albuterol Usage per IQR of LTE4, Relative Diff. [9]: −8.2%
- Change in Albuterol Usage per IQR of LTE4, Treatment interval [9]: −4.0%
- Change in Albuterol Usage per IQR of LTE4, Relative Diff. [10]: −6.6%
- Change in Albuterol Usage per IQR of LTE4, Treatment interval [10]: −3.6%
- Change in Albuterol Usage Per IQR Increase in LTE4, Relative difference (treatment vs baseline interval) (Lag 0-2): −10.8%
- Change in Albuterol Usage Per IQR Increase in LTE4, Treatment Interval (Lag 0-2 (Day 0-2 moving average of LTE4)): −3.0%
- Change in Albuterol Usage Per IQR Increase in LTE4, Relative difference (treatment vs baseline interval) (Lag 1-3): −13.0%
- Change in Albuterol Usage Per IQR Increase in LTE4, Treatment Interval (Lag 1-3 (Day 1-3 moving average of LTE4)): −3.2%

From patent US9383374B2, “Methods to determine susceptibility to treatment with leukotriene modifiers” (NATIONAL JEWISH HEALTH, priority 2008, dated 2016)
